# Assay results: ChEMBL document CHEMBL3870328, “Synthesis of novel Ral inhibitors: An in vitro and in vivo study” (Bioorg Med Chem Lett, 2016)
# Assays:
# [1] = Drug uptake in heart of mouse xenografted with human NCI-H2122 cells at 50 mg/kg, ip after 3 hrs by LC-MS/MS analysis; type: ADME, organism-based; settings: read-out: Drug uptake
# [2] = Drug metabolism in mouse xenografted with human NCI-H2122 cells assessed as M1 metabolite formation in kidney at 50 mg/kg, ip after 3 hrs by LC-MS/MS analysis; type: ADME, organism-based; settings: in vivo
# [3] = Drug metabolism in mouse xenografted with human NCI-H2122 cells assessed as M4 metabolite formation in tumor at 50 mg/kg, ip after 3 hrs by LC-MS/MS analysis; type: ADME, organism-based, Neoplasm; settings: in vivo
# [4] = Drug uptake in brain of mouse xenografted with human NCI-H2122 cells at 50 mg/kg, ip after 3 hrs by LC-MS/MS analysis; type: ADME, organism-based; settings: read-out: Drug uptake
# [5] = Drug metabolism in CD1 mouse liver microsomes assessed as CYP450-mediated demethylation by measuring M4 metabolite formation at 16.7 uM after 10 mins in presence of NADPH by LC-MS/MS analysis; type: ADME
# [6] = Drug metabolism in mouse xenografted with human NCI-H2122 cells assessed as M1 metabolite formation in tumor at 50 mg/kg, ip after 3 hrs by LC-MS/MS analysis; type: ADME, organism-based, Neoplasm; settings: in vivo
# [7] = Drug metabolism in mouse xenografted with human NCI-H2122 cells assessed as M4 metabolite formation in heart at 50 mg/kg, ip after 3 hrs by LC-MS/MS analysis; type: ADME, organism-based; settings: in vivo
# [8] = Drug metabolism in mouse xenografted with human NCI-H2122 cells assessed as M3 metabolite formation in kidney at 50 mg/kg, ip after 3 hrs by LC-MS/MS analysis; type: ADME, organism-based; settings: in vivo
# [9] = Drug metabolism in mouse xenografted with human NCI-H2122 cells assessed as 6-amino-4-(2,5-dihydroxyphenyl)-3-(naphthalen-2-yl)-1,4-dihydropyrano[2,3-c]pyrazole-5-carbonitrile metabolite formation in lungs at 50 mg/kg, ip after 3 hrs by LC-MS/MS analysis; type: ADME, organism-based, Lung; settings: in vivo
# [10] = Drug metabolism in mouse xenografted with human NCI-H2122 cells assessed as M4 metabolite formation in lungs at 50 mg/kg, ip after 3 hrs by LC-MS/MS analysis; type: ADME, organism-based, Lung; settings: in vivo
# [11] = Drug metabolism in mouse xenografted with human NCI-H2122 cells assessed as M3 metabolite formation in liver at 50 mg/kg, ip after 3 hrs by LC-MS/MS analysis; type: ADME, organism-based; settings: in vivo
# [12] = Drug metabolism in CD1 mouse liver microsomes assessed as CYP450-mediated mono-oxidation by measuring 6-amino-4-(2,5-dihydroxyphenyl)-3-(naphthalen-2-yl)-1,4-dihydropyrano[2,3-c]pyrazole-5-carbonitrile metabolite formation at 16.7 uM after 10 mins in presence of NADPH by LC-MS/MS analysis; type: ADME
# [13] = Drug metabolism in CD1 mouse liver microsomes assessed as CYP450-mediated mono-oxidation by measuring M5 metabolite formation at 16.7 uM after 10 mins in presence of NADPH by LC-MS/MS analysis; type: ADME
# [14] = Drug metabolism in mouse xenografted with human NCI-H2122 cells assessed as M5 metabolite formation in heart at 50 mg/kg, ip after 3 hrs by LC-MS/MS analysis; type: ADME, organism-based; settings: in vivo
# [15] = Drug metabolism in mouse xenografted with human NCI-H2122 cells assessed as M4 metabolite formation in liver at 50 mg/kg, ip after 3 hrs by LC-MS/MS analysis; type: ADME, organism-based; settings: in vivo
# [16] = Drug metabolism in mouse xenografted with human NCI-H2122 cells assessed as 6-amino-4-(2,5-dihydroxyphenyl)-3-(naphthalen-2-yl)-1,4-dihydropyrano[2,3-c]pyrazole-5-carbonitrile metabolite formation in kidney at 50 mg/kg, ip after 3 hrs by LC-MS/MS analysis; type: ADME, organism-based; settings: in vivo
# [17] = Drug metabolism in mouse xenografted with human NCI-H2122 cells assessed as M1 metabolite formation in lungs at 50 mg/kg, ip after 3 hrs by LC-MS/MS analysis; type: ADME, organism-based, Lung; settings: in vivo
# [18] = Drug metabolism in mouse xenografted with human NCI-H2122 cells assessed as M5 metabolite formation in tumor at 50 mg/kg, ip after 3 hrs by LC-MS/MS analysis; type: ADME, organism-based, Neoplasm; settings: in vivo
# [19] = Drug metabolism in mouse xenografted with human NCI-H2122 cells assessed as M5 metabolite formation in lungs at 50 mg/kg, ip after 3 hrs by LC-MS/MS analysis; type: ADME, organism-based, Lung; settings: in vivo
# [20] = Drug metabolism in mouse xenografted with human NCI-H2122 cells assessed as 6-amino-4-(2,5-dihydroxyphenyl)-3-(naphthalen-2-yl)-1,4-dihydropyrano[2,3-c]pyrazole-5-carbonitrile metabolite formation in plasma at 50 mg/kg, ip after 3 hrs by LC-MS/MS analysis; type: ADME, organism-based; settings: in vivo
# [21] = Drug metabolism in mouse xenografted with human NCI-H2122 cells assessed as M4 metabolite formation in plasma at 50 mg/kg, ip after 3 hrs by LC-MS/MS analysis; type: ADME, organism-based; settings: in vivo
# [22] = Drug metabolism in mouse xenografted with human NCI-H2122 cells assessed as 6-amino-4-(2,5-dihydroxyphenyl)-3-(naphthalen-2-yl)-1,4-dihydropyrano[2,3-c]pyrazole-5-carbonitrile metabolite formation in heart at 50 mg/kg, ip after 3 hrs by LC-MS/MS analysis; type: ADME, organism-based; settings: in vivo, BLD = below limit of detection
# [23] = Drug metabolism in mouse xenografted with human NCI-H2122 cells assessed as M5 metabolite formation in plasma at 50 mg/kg, ip after 3 hrs by LC-MS/MS analysis; type: ADME, organism-based; settings: in vivo
# [24] = Drug metabolism in CD1 mouse liver microsomes assessed as CYP450-mediated mono-oxidation by measuring M3 metabolite formation at 16.7 uM after 10 mins in presence of NADPH by LC-MS/MS analysis; type: ADME
# [25] = Drug metabolism in CD1 mouse liver microsomes assessed as CYP450-mediated mono-oxidation by measuring M1 metabolite formation at 16.7 uM after 10 mins in presence of NADPH by LC-MS/MS analysis; type: ADME
# [26] = Drug metabolism in mouse xenografted with human NCI-H2122 cells assessed as M5 metabolite formation in kidney at 50 mg/kg, ip after 3 hrs by LC-MS/MS analysis; type: ADME, organism-based; settings: in vivo
# [27] = Drug metabolism in mouse xenografted with human NCI-H2122 cells assessed as M3 metabolite formation in lungs at 50 mg/kg, ip after 3 hrs by LC-MS/MS analysis; type: ADME, organism-based, Lung; settings: in vivo
# [28] = Drug metabolism in mouse xenografted with human NCI-H2122 cells assessed as M3 metabolite formation in heart at 50 mg/kg, ip after 3 hrs by LC-MS/MS analysis; type: ADME, organism-based; settings: in vivo
# [29] = Drug metabolism in mouse xenografted with human NCI-H2122 cells assessed as M1 metabolite formation in heart at 50 mg/kg, ip after 3 hrs by LC-MS/MS analysis; type: ADME, organism-based; settings: in vivo
# [30] = Plasma concentration in mouse xenografted with human NCI-H2122 cells at 50 mg/kg, ip after 3 hrs by LC-MS/MS analysis; type: ADME, organism-based
# [31] = Drug metabolism in mouse xenografted with human NCI-H2122 cells assessed as 6-amino-4-(2,5-dihydroxyphenyl)-3-(naphthalen-2-yl)-1,4-dihydropyrano[2,3-c]pyrazole-5-carbonitrile metabolite formation in liver at 50 mg/kg, ip after 3 hrs by LC-MS/MS analysis; type: ADME, organism-based; settings: in vivo
smiles,measurement,setting,value
COc1ccc(OC)c(C2C(C#N)=C(N)Oc3[nH]nc(-c4ccc5ccccc5c4)c32)c1 (stereo unspecified),concentration at 3 h,[1],13700 ng/g
same,Drug metabolism,[2],135.2 ng/g
same,Drug metabolism,[3],10.2 ng/g
same,concentration at 3 h,[4],570 ng/g
same,Drug metabolism,[5],Metabolite_Detected
same,Drug metabolism,[6],7.4 ng/g
same,Drug metabolism,[7],33.5 ng/g
same,Drug metabolism,[8],4.1 ng/g
same,Drug metabolism,[9],1.1 ng/g
same,Drug metabolism,[10],46.8 ng/g
same,Drug metabolism,[11],49.6 ng/g
same,Drug metabolism,[12],Metabolite_Detected
same,Drug metabolism,[13],Metabolite_Detected
same,Drug metabolism,[14],5.5 ng/g
same,Drug metabolism,[15],1391.3 ng/g
same,Drug metabolism,[16],3.7 ng/g
same,Drug metabolism,[17],18.2 ng/g
same,Drug metabolism,[18],1.4 ng/g
same,Drug metabolism,[19],11.5 ng/g
same,Drug metabolism,[20],8.4 ng/mL
same,Drug metabolism,[21],37.8 ng/mL
same,Drug metabolism,[22],Bld
same,Drug metabolism,[23],2.7 ng/mL
same,Drug metabolism,[24],Metabolite_Detected
same,Drug metabolism,[25],Metabolite_Detected
same,Drug metabolism,[26],20.9 ng/g
same,Drug metabolism,[27],2 ng/g
same,Drug metabolism,[28],1.1 ng/g
same,Drug metabolism,[29],12.4 ng/g
same,concentration at 3 h,[30],3910 ng/mL
same,Drug metabolism,[31],160.8 ng/g
